Source: ChEMBL document CHEMBL5532668, “Pitfalls and Considerations in Determining the Potency and Mutant Selectivity of Covalent Epidermal Growth Factor Receptor Inhibitors” (J Med Chem, 2024)

Key:
Homo sapiens = organism: Homo sapiens; experiment: Selectivity ratio, ratio of Ki for human wild type EGFR to Ki for EGFR L858R mutant (unknown origin)
[1] = tested on: Epidermal growth factor receptor (Homo sapiens), P00533 [L858R,T790M]
[2] = tested on: Epidermal growth factor receptor (Homo sapiens), P00533 [L858R]
[3] = tested on: Epidermal growth factor receptor (Homo sapiens), P00533 [L858R]; remark: listed apart in the source
[4] = target: Epidermal growth factor receptor (Homo sapiens, UniProt P00533, L858R); experiment: Binding affinity to EGFR L858R mutant (unknown origin) assessed as apparent inhibition constant in presence of ATP by TR-FRET assay; conditions: read-out: Ki(app)
Sequence of Epidermal growth factor receptor (P00533 25-1210 L858R limits assumed): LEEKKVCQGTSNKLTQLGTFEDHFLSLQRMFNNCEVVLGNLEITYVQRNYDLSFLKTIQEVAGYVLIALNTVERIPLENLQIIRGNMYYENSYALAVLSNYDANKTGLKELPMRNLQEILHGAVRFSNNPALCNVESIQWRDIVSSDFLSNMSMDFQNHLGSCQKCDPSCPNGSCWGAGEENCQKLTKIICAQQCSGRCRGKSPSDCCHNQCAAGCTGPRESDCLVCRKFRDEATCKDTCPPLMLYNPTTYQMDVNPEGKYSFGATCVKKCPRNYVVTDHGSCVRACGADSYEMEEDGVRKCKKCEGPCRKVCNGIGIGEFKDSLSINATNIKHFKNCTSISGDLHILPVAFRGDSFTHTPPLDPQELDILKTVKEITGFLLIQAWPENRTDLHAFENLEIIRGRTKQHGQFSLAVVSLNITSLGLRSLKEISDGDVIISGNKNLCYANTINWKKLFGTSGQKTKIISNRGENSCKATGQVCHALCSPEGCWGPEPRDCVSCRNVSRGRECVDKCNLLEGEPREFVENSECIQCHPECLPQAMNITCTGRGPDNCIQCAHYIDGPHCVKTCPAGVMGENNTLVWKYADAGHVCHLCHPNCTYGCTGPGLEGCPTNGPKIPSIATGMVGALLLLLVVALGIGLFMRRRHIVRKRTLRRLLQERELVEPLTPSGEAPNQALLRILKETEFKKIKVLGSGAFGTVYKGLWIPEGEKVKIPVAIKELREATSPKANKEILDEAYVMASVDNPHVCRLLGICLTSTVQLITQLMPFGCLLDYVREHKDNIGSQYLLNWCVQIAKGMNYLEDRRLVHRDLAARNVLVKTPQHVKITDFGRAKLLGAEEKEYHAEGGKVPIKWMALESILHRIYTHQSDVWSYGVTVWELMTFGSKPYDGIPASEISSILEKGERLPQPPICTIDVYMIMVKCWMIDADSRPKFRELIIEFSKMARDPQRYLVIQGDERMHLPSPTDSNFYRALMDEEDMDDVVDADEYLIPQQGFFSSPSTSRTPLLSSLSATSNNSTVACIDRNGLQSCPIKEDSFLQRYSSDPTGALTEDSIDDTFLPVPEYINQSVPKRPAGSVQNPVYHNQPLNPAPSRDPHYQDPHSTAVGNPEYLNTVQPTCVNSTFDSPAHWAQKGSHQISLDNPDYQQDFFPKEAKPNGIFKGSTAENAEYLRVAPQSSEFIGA

Sequence of Epidermal growth factor receptor (Homo sapiens), P00533 [L858R] (P00533 whole entry L858R): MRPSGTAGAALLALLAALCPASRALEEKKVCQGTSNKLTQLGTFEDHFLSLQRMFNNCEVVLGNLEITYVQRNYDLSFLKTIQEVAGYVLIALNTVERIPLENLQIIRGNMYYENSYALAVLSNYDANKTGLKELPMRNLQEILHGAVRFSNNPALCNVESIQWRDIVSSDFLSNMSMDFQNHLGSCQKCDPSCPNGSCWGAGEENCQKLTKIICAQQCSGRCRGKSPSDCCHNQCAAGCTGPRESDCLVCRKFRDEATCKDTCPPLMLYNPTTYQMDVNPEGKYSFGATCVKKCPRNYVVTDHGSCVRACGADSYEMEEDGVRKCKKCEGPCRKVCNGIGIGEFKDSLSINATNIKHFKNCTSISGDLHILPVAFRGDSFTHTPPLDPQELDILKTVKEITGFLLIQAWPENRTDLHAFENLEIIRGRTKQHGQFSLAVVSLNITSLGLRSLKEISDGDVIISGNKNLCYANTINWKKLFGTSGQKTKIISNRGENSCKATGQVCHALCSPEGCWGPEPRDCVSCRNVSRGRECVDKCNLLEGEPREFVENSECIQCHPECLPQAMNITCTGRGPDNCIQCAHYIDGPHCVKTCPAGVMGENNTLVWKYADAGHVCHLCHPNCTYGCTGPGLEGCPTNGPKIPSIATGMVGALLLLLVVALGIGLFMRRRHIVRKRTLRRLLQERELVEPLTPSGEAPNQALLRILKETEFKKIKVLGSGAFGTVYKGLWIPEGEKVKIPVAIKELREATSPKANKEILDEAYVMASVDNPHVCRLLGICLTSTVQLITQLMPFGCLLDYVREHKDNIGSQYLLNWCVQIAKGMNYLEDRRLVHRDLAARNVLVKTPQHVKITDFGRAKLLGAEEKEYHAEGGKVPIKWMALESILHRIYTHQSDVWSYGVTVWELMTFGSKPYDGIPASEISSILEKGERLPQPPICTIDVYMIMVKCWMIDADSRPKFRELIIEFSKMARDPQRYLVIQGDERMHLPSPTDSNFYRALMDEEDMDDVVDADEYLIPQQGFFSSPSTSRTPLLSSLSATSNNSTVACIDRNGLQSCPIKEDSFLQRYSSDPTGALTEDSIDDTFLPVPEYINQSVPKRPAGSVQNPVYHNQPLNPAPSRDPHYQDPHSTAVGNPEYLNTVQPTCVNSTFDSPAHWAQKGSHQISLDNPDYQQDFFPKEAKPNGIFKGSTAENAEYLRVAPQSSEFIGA
Sequence of Epidermal growth factor receptor (Homo sapiens), P00533 [L858R,T790M] (P00533 whole entry T790M/L858R, looked up): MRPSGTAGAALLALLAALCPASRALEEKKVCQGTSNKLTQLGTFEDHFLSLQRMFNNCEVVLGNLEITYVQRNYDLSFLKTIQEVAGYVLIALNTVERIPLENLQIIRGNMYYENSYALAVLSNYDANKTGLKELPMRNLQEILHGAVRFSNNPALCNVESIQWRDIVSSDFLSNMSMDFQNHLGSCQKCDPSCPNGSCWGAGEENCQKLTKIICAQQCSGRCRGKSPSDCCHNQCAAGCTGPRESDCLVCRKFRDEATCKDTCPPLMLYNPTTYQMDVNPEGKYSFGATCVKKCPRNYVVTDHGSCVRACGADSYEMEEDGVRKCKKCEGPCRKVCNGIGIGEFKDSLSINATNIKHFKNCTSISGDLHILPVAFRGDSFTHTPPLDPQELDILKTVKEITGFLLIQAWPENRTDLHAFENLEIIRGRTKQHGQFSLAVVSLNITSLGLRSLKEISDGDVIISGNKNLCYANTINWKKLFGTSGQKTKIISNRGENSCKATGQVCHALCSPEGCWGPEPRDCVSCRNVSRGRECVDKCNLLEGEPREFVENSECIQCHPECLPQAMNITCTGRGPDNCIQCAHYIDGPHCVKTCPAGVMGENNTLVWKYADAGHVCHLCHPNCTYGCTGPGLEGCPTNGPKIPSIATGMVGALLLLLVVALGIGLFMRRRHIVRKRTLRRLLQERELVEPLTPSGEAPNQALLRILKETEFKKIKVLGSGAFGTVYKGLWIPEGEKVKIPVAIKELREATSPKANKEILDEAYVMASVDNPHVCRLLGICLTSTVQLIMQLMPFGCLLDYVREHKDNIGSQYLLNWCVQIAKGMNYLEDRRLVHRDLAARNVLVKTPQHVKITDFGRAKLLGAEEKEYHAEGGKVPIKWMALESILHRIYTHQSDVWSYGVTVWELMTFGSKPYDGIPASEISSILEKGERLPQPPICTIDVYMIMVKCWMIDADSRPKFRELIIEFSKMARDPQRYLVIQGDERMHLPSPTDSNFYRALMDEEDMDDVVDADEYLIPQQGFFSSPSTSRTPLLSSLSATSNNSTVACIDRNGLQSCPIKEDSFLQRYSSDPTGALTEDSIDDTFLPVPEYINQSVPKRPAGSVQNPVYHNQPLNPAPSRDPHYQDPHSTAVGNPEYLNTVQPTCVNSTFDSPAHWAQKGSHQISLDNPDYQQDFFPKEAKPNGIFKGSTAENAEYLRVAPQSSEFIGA

Ratio Ki (Homo sapiens): 0.358
Kinact [1]: 3.92 10^-3/s
Kinact [2]: 5.88 10^-3/s
Kinact [3]: 0.00971 s⁻¹
Ki [4]: 4.68 nM
SMILES: C=CC(=O)Nc1cc(Nc2nccc(-n3cc(CN(C)C)c(-c4ccccc4)n3)n2)c(OC)cc1N1CCOCC1 [LAZERTINIB]
